In brackets after ≈: the same amount, converted by molar mass. Read-outs that look alike come from different tables or passages of the source.
Key:
[1] = biological target: T1, NorA (Staphylococcus aureus, UniProt P0A0J7); conditions: reference for CoMFA predictions; cited from earlier work
T1 construct: expressed in transfected cells; host or cells: Bacillus subtilis strain NA

[2] = system: S. pneumoniae (SPC2A); assay: Minimal inhibitor concentration decreasing the ciprofloxacin MIC two fold, S. pneumoniae SPC2A; format: cell-based; conditions: Streptococcus pneumoniae; SPC2A; minimal concentration required to decrease the MIC for ciprofloxacin by two fold; N.A. = not active at 5 μg/ml; read-out: IC50 S. Pneumoniae
[3] = biological target: T1, NorA; format: cell-based; conditions: FIG. 8; reserpine 20 μg/ml, INF 55, 240, 271, 392 5 μg/ml, INF 277 10 μg/ml
Experimental: Effect of the lead inhibitors on ethidium efflux from NA cells. NA cells were loaded with ethidium in the presence of reserpine and allowed to efflux in the absence of reserpine (A) in the presence of 20 μg/ml reserpine (B), 5 μg/ml of INF 55 (C), 5 μg/ml of INF 240 (D), 5 μg/ml of INF 271 (E), 5 μg/ml of INF 392 (F), or 10 μg/ml of INF 277 (G). Fluorescence intensity is proportional to the amount of ethidium remaining inside the cells.
NA cells overexpressing NorA were loaded with ethidium bromide in the presence of reserpine (20 μg/ml). After washing, cells were placed in a fluorimeter cuvette with fresh medium.

[4] = biological target: T1, NorA; conditions: cited from earlier work
[5] = system: first step mutants of S. pneumoniae (ATCC 49619); conditions: three first step mutants, non-toxic concentration
[6] = biological target: Bmr (Bacillus subtilis, UniProt P33449); conditions: cited from earlier work
[7] = system: E. faecalis; conditions: cited from earlier work
[8] = system: NorA-overexpressing S. aureus, SA1199B; assay: Frequency of emergence of SA1199B mutants insensitive to the NorA inhibitor (adaptation of NorA); format: cell-based; conditions: mutagenized SA1199B, ethidium bromide 10 μg/ml, INF inhibitors 5 μg/ml, reserpine 20 μg/ml, 48 h
Experimental: To evaluate the possibility of such mutations arising in the NorA transporter the inventors determined the frequency of emergence of mutants of NorA-overexpressing S. aureus, SA1199B, that retained resistance to a NorA substrate in spite of the presence of a NorA inhibitor. […] After a 48 h incubation period the number of colonies on each plate was determined.

[9] = system: wild type S. aureus SA1199; format: cell-based; conditions: INF inhibitors 5 μg/ml, reserpine 20 μg/ml; for Fold inhibition of emergence of resistance: ciprofloxacin resistance, SA1199
Experimental: The effect of the inhibitors on the rate of emergence of in vitro selected single-step ciprofloxacin resistant mutants of wild type S. aureus SA1199 (Kaatz et al., 1990) was determined.
Ciprofloxacin resistance in first step in vitro selected mutants of S. aureus is predominantly due to specific point mutations in the targets of this drug, topoisomerase IV and gyrase (Cambau and Gutman, 1993; Ferrero et al., 1994).

[10] = system: S. aureus (SA1199B); assay: Minimal inhibitor concentration decreasing the ciprofloxacin MIC two fold, S. aureus SA1199B; format: cell-based; conditions: Staphylococcus aureus, read-out: Effectivity IC50* S. Aureus
[11] = system: wild-type S. aureus; conditions: cited from earlier work
[12] = system: S. pneumoniae; conditions: cited from earlier work
[13] = system: B. subtilis; conditions: inhibition of the Bmr transporter; cited from earlier work
[14] = S. pneumoniae strain EBR, non-toxic concentrations

T1 sequence (P0A0J7 whole entry): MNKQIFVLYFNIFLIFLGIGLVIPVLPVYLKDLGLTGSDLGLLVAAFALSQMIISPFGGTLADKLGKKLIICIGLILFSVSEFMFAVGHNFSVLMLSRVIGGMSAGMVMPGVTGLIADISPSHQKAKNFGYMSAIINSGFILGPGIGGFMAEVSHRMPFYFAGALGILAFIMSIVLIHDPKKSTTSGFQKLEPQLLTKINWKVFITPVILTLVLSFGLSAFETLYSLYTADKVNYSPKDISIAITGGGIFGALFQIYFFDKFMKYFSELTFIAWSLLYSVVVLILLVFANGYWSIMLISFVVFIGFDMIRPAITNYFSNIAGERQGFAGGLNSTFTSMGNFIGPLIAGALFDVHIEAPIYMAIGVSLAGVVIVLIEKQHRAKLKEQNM
Bmr, sequence (P33449 whole entry): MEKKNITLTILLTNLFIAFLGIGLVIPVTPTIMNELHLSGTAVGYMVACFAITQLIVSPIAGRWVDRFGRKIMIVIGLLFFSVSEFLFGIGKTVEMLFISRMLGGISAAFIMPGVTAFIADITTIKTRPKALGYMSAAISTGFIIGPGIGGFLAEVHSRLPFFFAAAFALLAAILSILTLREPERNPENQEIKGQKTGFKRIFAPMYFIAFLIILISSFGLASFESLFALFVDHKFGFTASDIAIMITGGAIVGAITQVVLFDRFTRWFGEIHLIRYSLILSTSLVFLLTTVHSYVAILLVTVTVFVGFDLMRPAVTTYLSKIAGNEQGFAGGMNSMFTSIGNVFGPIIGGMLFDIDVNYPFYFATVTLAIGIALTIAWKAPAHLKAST

COC(=O)[C@H]1[C@H]2C[C@@H]3c4[nH]c5cc(OC)ccc5c4CCN3C[C@H]2C[C@@H](OC(=O)c2cc(OC)c(OC)c(OC)c2)[C@@H]1OC [Reserpine, reserpine]
concentration at which known to be active [1]: 5 µg/mL | IC50 [2]: 5 µg/mL (≈ 8.21 µM) | inhibition of the decrease in fluorescence due to NorA-mediated ethidium efflux [3]: dramatically inhibited | inhibition of drug efflux mediated by NorA [4]: completely inhibited | reversal of resistance to ciprofloxacin and ethidium bromide [5]: reversed the resistance | inhibition of drug efflux mediated by Bmr [6]: completely inhibited | increase in susceptibility to fluoroquinolones [7]: two-fold increase | Frequency of adaptation of NorA (mutants insensitive to the inhibitor) [8]: approximately 2×10^−8 | Frequency of emergence of variants resistant to two fold the MIC of ciprofloxacin, Spontaneous ([9]; SA1199, ciprofloxacin 1 μg/ml, 48 h): <5 × 10^−11 | Frequency of emergence of variants resistant to two fold the MIC of ciprofloxacin, Mutagenized ([9]; SA1199 mutagenized with ethylmethane sulfonate): <2.5 × 10^−10 | Fold inhibition of emergence of resistance [9]: >50 | Fold inhibition of emergence of resistance ([9]; listed as reserpine): more than one order of magnitude | IC50 [10]: 6.25 µg/mL (≈ 10.3 µM) | reduction of the MIC of norfloxacin [11]: at least four-fold | inhibition of ethidium efflux [12, 14]: inhibited ethidium efflux | reversal of resistance to ethidium and fluoroquinolones [12, 14]: reversed the resistance | potentiation of susceptibility to ethidium and fluoroquinolones ([12]; wild type S. pneumoniae): two to three fold | factor of reduction of the MIC of norfloxacin and ciprofloxacin ([12]; wild-type S. pneumoniae): 2-3 | reduction of the MIC of norfloxacin [13]: by a factor of five
